According to patent US20240051997A1, “SAP AND PEPTIDOMIMETIC COMPOSITIONS FOR REDUCING SYMPTOMS OF INFLAMMATION” (Arch Biosurgery, Inc., priority 2018, published 2024):
“Also recorded” adds a separate entry of the source.

Key:
[1] = tested on: olfactory bulb inflammation, GFAP (reactive astrocytes); assay: Olfactory bulb injury model (transection), GFAP immunohistochemistry; assay type: in vivo, Sprague-Dawley rat; details: rat olfactory bulb, days 2-14
Experimental: The anti-inflammatory effects of EARA-16 (SEQ ID NO: 89) and RADA-16 (SEQ ID NO: 1) were examined using an olfactory bulb injury model. Levels of inflammation were assayed through immunohistochemical staining for glial fibrillary acidic protein (GFAP) as an indicator of reactive astrocytes.
In brief, the olfactory bulbs of adult Sprague-Dawley rats were unilaterally transected and the cuts were then treated with either saline as a control, or one of RADA-16 (SEQ ID NO: 1) or EARA-16 (SEQ ID NO: 89) solutions (each used at 1% and 3%). The SAP materials were injected into the cuts post transection at the time of surgery. After 2, 7 or 14 days, the animals were sacrificed.
A more detailed protocol is as follows: adult Sprague-Dawley rats were anesthetized with a mixture of ketamine (80 mg/kg, i. p.) and xylazine (8 mg/kg, i. p.). The head was shaved and a thorough disinfection of the head surface was carried out with iodine 5% solution. The bilateral olfactory bulbs were exposed by drilling two burr holes (2 mm diameter, 8 mm anterior to the bregma) on either side at a distance of 2 mm from the midline of the frontal bone in the region overlying the olfactory bulbs. A cataract knife with a blunted end and one sharpened edge was used for surgery. The cut was performed on the middle of olfactory bulb. The blunted edge of the knife was inserted along the middle line of the olfactory bulb to prevent damage of the sagittal sinus, until the tip of the knife lightly touched the bottom of the brain without penetration of the dura. The knife was then moved laterally to transect the bulb until it reached the lateral edge of the hole. The knife was then rotated and pulled out to have a complete cut of the bulb at lateral side. This procedure was modified from the method described in several previous studies attempting to isolate the olfactory bulb from other parts of the brain (Ahrens & Freeman 2001; Allison 1953; Chaput 1983; Freeman 1968; Koliatsos et al 2004; Munirathinam et al 1997).
After performing the cut, one of the solutions was used to treat the injury site: either 10 μl saline (control group) or the EARA-16 (SEQ ID NO: 89) or RADA-16 (SEQ ID NO: 1) SAP (at a concentration of 1% and 3%) was injected evenly into the wound site using a self-constructed hydraulic pressure injection system without micro syringe. This technique was modified from similar methods as described by Bullier and others (Bullier et al 1980; Fish & Rhoades 1981; Kratskin et al 1997; Meyers & Snow 1981; Price et al 1977; Shipley 1982). Care was taken to control the speed of the injection of the saline or the SAP. After the injection, the wound was closed and the animals were placed in a warm place for recovery before they were brought back to their home cages. […]

Human THP-1 cells = assay: Cytokine release by THP-1 cells exposed to LPS/RADA-16 mixture; assay type: cell-based; details: LPS 1 μg/ml added to 1, 10 or 100 μg/well peptide, then to THP-1 cells
Experimental: The anti-inflammatory effect of a SAP was examined using an in vitro assay to assess cytokine release by human THP-1 cells in the presence of SAP. Measurement of THP-1 cell activation in response to antigen was assessed by cytokine release.
To assess cytokine release upon THP-1 cell activation, lipopolysaccharides (LPS) from Salmonella typhimurium (catalog no. L-7261; Sigma-Aldrich, St. Louis, MO) were added to THP-1 cells, at a concentration of 1 μg/ml.
To determine the effects of exposing THP-1 cells to RADA-16 (SEQ ID NO: 1) upon cytokine release, LPS was added to each of the 1 μg/well, 10 μg/well, or 100 μg/well RADA-16 samples, and then added to THP-1 cells.
The release of cytokines in response to exposure of THP-1 cells to RADA-16 (SEQ ID NO: 1) or LPS was measured using the PROTEOME PROFILER™ Array kit, commercially available as a test strip kit for detection of cytokines in solution (R&D Systems, Inc., Catalog Number ARY005). The assay was carried out according to the manufacturer's guide lines.

[2] = tested on: liver inflammation, ED-1 reactivity (macrophage activation); assay: Rat liver injury model (punch biopsy), ED-1 immunohistochemistry; assay type: in vivo, Sprague-Dawley rat; details: 4 mm punch biopsy, all time-points observed, compared to saline or acid controls
Experimental: The anti-inflammatory effects of EARA-16 (SEQ ID NO: 89) and RADA-16 (SEQ ID NO: 1) SAPs were examined using a liver injury model. Levels of inflammation were assayed through immuno-histochemical ED-1 reactivity (ED-1 serves as a marker of macrophage activation).
Pigs or adult Sprague-Dawley rats were anesthetized and their intraperitoneal cavities were opened under aseptic conditions. For each animal, the liver was exposed and then subjected to an 8 mm (pig) or 4 mm (rat) punch biopsy.
The punch sites were then cauterized or treated with acid (for pH control), saline, or RADA-16 (SEQ ID NO: 1) or EARA-16 (SEQ ID NO: 89) solutions. The animals were allowed to survive for up to 14 days. The animals were then sacrificed and their livers were harvested and sectioned. An ED-1 antibody was used to determine the level of inflammation and activation of macrophages in the liver via immunohistochemistry (IHC).

Sequence: RADARADARADARADA [RADA-16, self-assembling peptide]
- time course of reactive astrocyte activation / inflammation (GFAP) ([1]; 1% solution): increased activation of reactive astrocytes on day 7 which subsequently reduced by day 14
- time course of reactive astrocyte activation / inflammation (GFAP) ([1]; 3% solution): increased activation of reactive astrocytes on day 7 which subsequently reduced by day 14
- cytokine release upon LPS exposure (C5a, TNFSF2, IL-6, IL-8/CXCL8, MCP-1/CCL2, MIP-1/CCL3, MIP-1/CCL4, IL-1/IL1-F2) (Human THP-1 cells): reduced levels of cytokine release; also recorded: prevented or reduced the release of cytokines
- levels of inflammation in liver (ED-1 IHC) [2]: markedly reduced the levels of inflammation
